From patent publication US20140099354A1, “BIOPASSIVATING MEMBRANE STABILIZATION BY MEANS OF NITROCARBOXYLIC ACID-CONTAINING PHOSPHOLIPIDS IN PREPARATIONS AND COATINGS” (priority 2011, published 2014) come the findings set out here.

One series relates to Human red blood cells. The series is described as follows: Erythrocyte membrane stability (osmotic, mechanical, storage). Format: cell-based. The settings on record: 30 mmol/l, incubated for an hour. How it is done: The physico-chemical properties of cell membranes determine their strength of resistance to physical, chemical and immunological alterations. Human red blood cells and mast cells from mice dissolved in solutions of physiological NaCl containing the natural phospholipids SOPC and PLPC or the analogue nitrated phospholipids (1-stearoyl-2-(9-nitrooleoyl)-sn-PC (example P14) and 1-palmitoyl-2-(9-nitrolinoleoyl)-sn-PC) (example P7) at a concentration of 30 mmol/l were incubated for an hour in order to assess the effects of an up-take of phospholipids into the cell membranes with respect to resistance to external alterations. Similarly, cells incubated with mixtures of nitro-carboxylic acid (s)-containing phospholipids according to examples N2-N14, F, Q, S, O3-O6, P1-P3 and P6 were investigated.
For assessment of osmotic stability, cells were separated from serum by centrifugation first and then cleaned three times with physiological NaCl solution. […] After incubation for 30 minutes under the above described conditions, the tubes were centrifuged and an aliquot was taken for photometric measurement of hemoglobin by absorbance at a wavelength of 546 nm at a temperature of 30° C.
For the examinations of mechanical stability, erythrocytes were prepared according to the procedure above. […] Then, the samples were centrifuged and supernatants were analyzed as stated above. […]

A further series concerns TRPV1, 2 and 4, TRPA1. The series can be described thus: Inducible ion current of TRP receptors in Xenopus oocytes (voltage clamp). The settings on record: 50 mmol/l, 10 and 60 minutes. Format: cell-based, rat. How it is done:
An established in-vitro model of Xenopus oocytes (Dascal N, 1987 The use of Xenopus oocytes. CRC critical reviews in biochemistry 22, 317-387) was used to study the influence of incubation with PL on ion channels regulated by membrane receptors. Defolliculized oocytes were transfected with cRNA (rat) of TRPV1, 2 and 4, as well as of TRPA1, stored in tissue culture plates and incubated in culture medium (ND 96) at 15° C. under constant motion in the incubator for 7 to 10 days.
Induced leakage currents through activation of the TRP receptors was determined by means of double electrode voltage-clamp technique (Ahern G P, Brooks I M, Miyares R L &Wang X B, 2005, Extracellular cations sensitize and gate capsaicin receptor TRPV1 modulating pain signalling. J Neurosci 25, 5109-5116). Ooocytes were probed with borosilicate glass capillaries (Clark) and connected to a feedback amplifier (Gene clamp Amplifier, Axon instruments). The membrane potential of oocytes was clamped to −60 or −90 mV. The presence of a directive […] current was compared to non-transfected controls. The investigations were performed in a miniature organ bath in calcium-free buffered (Hepes, pH 7.3) NaCl solution. The TRPV1 receptor excitation was initiated by rapidly changing of the bath solution against a capsaicin solution (10 μmol). Results of non-pretreated oocytes were used for normative comparison of subsequent measurements of incubatesd cells. Investigations with incubated cells were carried out in the same way for oocytes transfected with the TRPV2, and TRPV4 and TRPA1 receptors, wherein the receptor agonists cannabidiol (10 μmol) and 4α-PDD (4α-phorbol 12,13-didecanoate, 50 μmol) and innamaldehyde (50 μmol) were used instead of capsaicin.

Series [1] can be described thus: Abrasion stability and traction work load of coated balloon catheters. Format: physicochemical.
Description: Balloon catheters were coated by means of the Langmuir-Schaefer procedure where the balloon segment was aligned longitudinally and coaxial to the solution surface, dipping into the liquid for approx. 1 mm over the entire length. Then the catheter was slowly rotated around its axis 5 times. Phospholipids were dissolved at a concentration of 3 mmol in an ion-free aqueous solution at 50° C. The solution was cooled and given to the coating solution then. In case of incomplete dissolution of the phospholipids or if they separated when cooled, DMSO was added at a concentration of up to 20 vol.-%, preferably up to 10 vol.-%. After coating, the catheters were vacuum dried for 8 hours in order to remove residual solvent.
The tubing was filled with a 10% human albumin solution at a temperature of 35° C. The cable system, which had previously been brought through the tubing was connected to the catheter tip and tracked outside the tubing by reversing pulleys, which allowed exactly vertically traction of the cable that was connected to a motorized winch. The winch was mounted on a digital precision balance. The catheters mounted in this manner were pulled through the tubing system and the weight changes measured by the balance, which represented the traction work load achieved for the passage of the catheter, was recorded continuously. These readings were integrated over time. The resultant values allow estimation of the total shear force that occurred during the passage of the catheter through the tubing system.
The abrasion or loss of coating layers was determined by weighing the catheter before and after coating as well as after the mechanical stability test in the tubing system as described above using a high precision balance.
Series [2] can be described thus: Tissue response to coated silicone implants in vivo after bleomycin. On the set-up: species or system Wistar rats. The settings on record: silicone cushions, subcutaneous, 7 to 90 days.
Description: Induction of fibrotic tissue production by connective tissue activation as a consequence of implantation of foreign material was examined in an in-vivo animal model. As implant materials, sterile silicone cushions having a diameter of 1 cm were used.
In male Wistar rats (190-240 g) that were fed and housed under identical conditions for one week, general anaesthesia was performed by intramuscular injection of 0.008 mL/100 g ketamine and 0.004 mL/100 g xylocaln chloride 2%. Then the back of the animals was shaved, sterilized and infiltrated with xylocalne chloride. A paravertebral incision was made on both sides with a length of 1.5 cm followed by preparation of the subcutaneous tissue, so that on both sides approx. 2×2 cm cavities were preformed. Hemostasis was achieved by cauterization, if necessary. Then balls of cotton saturated with Bleomycin (cell-pharm GmbH, Hannover, Germany: 1% in 0.9% NaCl solution) were inserted into the cavities for 3 minutes and then removed. Without rinsing the cavities, the implants coated with a nitrated phospholipid were inserted into the cavity on the left side and the implants coated with natural phospholipid into the cavity on the right side. Thereafter, a layer by layer wound closure was performed and a sterile adhesive bandage was applied.
The animals were kept according to standard conditions for 7, 14, 30, 60 and 90 days. At any study time endpoint, two animals were euthanized. After death the well visible and palpable implants were removed using en-block resection technique. The resected specimens were fixed and embedded in paraffin. Then they were cut in half and the liquid silicone was removed. The specimens were embedded again and cut into thin slices which were stained with H & E and Sirius red, and evaluated by light microscopy. Evaluation was done according to the following criteria:
A1: none; A2: occasional monocytic cells or lymphocytes; A3: moderate numbers or groups of monocytic cells or lymphocytes; A4: dense infiltration of monocytes, eosinophils, or giant cells.
B1: none; B2: collagen-rich layer around the implant; B3: thick (>1 mm) and dense collagen-rich tissue formation around the implant.
In every 10th serial section 10 fields of view uniformly distributed over the circumference of the implant were evaluated and the herein predominant expression was assigned to an event table. In total, 200 fields of view were analyzed per implant
For a further series, the system named is sciatic nerve. The series can be described thus: Viability of cryopreserved nerve grafts (Annexin-V staining, FACS). Format: cell-based, rats. The settings on record: 100 mmolar solution 1 hour; −30° C. 72 hours.
Series [3] has as its system ovarian tissue strips. The series is described as follows: Cryopreservation of ovarian tissue strips: 17 β-estradiol and progesterone (radio-immuno assay). Format: cell-based, sheep. The settings on record: after cryopreservation and culture.
Description: (§1) Ovar ectomy was performed in female sheep; resected tissues were cut into 60 ovarian tissue strips. The ovarian strips were either cultured directly (n=4) or prepared with a usual solution for vitrification (VS group; Vitrification Kit, Sage, USA) or incubated with nitrated PLs (NPL group). For this purpose, the tissue strips were bathed in an equibrilation solution (ART-8025-A) which consisted of MOPS-buffered amino acids and gentamicin sulfate (10 mg/l), and 7.5% (v/v) of each DMSO and ethylene glycol and 12 mg/ml human serum albumin for 30 minutes. Thereafter the strips of the VS group were placed in the vitrification solution (ART-8025-B), which is a MOPS-buffered solution containing amino acids and gentamicin sulfate, that contain 15% (v/v) each DMSO and ethylenglycol, 12 mg/ml human albumin and 0.6 M sucrose. The strips of the NPL group were placed in a solution containing 25% (v/v) nitrated PL SNOPC or PNLPC in a PBS-buffered 1% DMSO solution containing 5% human albumin for 60 minutes. The treated tissue strips were then immersed into liquid nitrogen and kept here for 14 days. Then removal and warming of the tissue pieces was performed in AIM-V medium (Gibco, Invitrogen) in a sterile culture dish, first up to 5° C. within 20 minutes, then heated further in a water bath up to 37° C., within the following 60 minutes. The culture medium was replaced and specimens cultured for 14 days. After this, the tissue pieces were fixed, embedded in paraffin and cut, followed by histological examination. […] The total number of intact follicles in the control group was taken as a reference to the number of follicles in the cryopreserved groups.
(§2) The culture medium has been exchanged by every 2nd day; samples for hormone analysis were taken and frozen at that time. Determination of 17 β-estradiol and progesterone were performed with a radio-immuno assay (diagnostic systems laboratories, USA).
Series [4] relates to Heart muscle cells from rabbit hearts. The series can be described thus: Cytosolic Ca2+ concentration in heart muscle cells (fluo-4 fluorescence). Format: cell-based. How it is done:
Heart muscle cells were taken from rabbit hearts according to a method described elsewhere (Shannon T R, Ginsburg K S, Bers D M. Quantitative assessment of the SRCa^2+ leak-load relationship. Circ Res. 2002; 91:594-600). The prepared cells were cultured for 72 hours.
The cytosolic Ca^2+ concentrations were determined with fluo-4 fluorescence. Therefore the cells were incubated with 10 μmol fluo-4 AM (1%) for 30 minutes and washed thereafter three times with PBS. The cells were stimulated in a Tryode solution on a platinum electrode with a frequency of 0.5 Hz over 20 cycles. Then the ambient medium was changed and an electrolyte-free colloidal solution was added. Determination of the Ca concentration was performed after each series of stimulation over 20 cycles. Calcium content was estimated by the use of confocal laser scanning microscopy (Olympus). At least 10 cells per experiment were evaluated in a post-systolic interval of 1000 ms. The measurements were repeated at least three times. β-adrenergic stimulation was performed with 250 nmol/L isoproterenol, which was given to the medium.

Series [5] addresses Glycophorin A (GpA) peptides (Homo sapiens, UniProt P02724). The settings on record: 10-50% (mol/mol) admixed to DSPC vesicles; versus native phospholipids.
Description: The change of the Frster resonance energy transfer (FRET) of fluorescence-labelled peptides with α helical trans-membrane structure in a double lipid layer can be used for determination of the concentration of monomeric and dimeric trans-membrane helices and for quantitative determination of helix-helix interactions.
FRET measurements were carried out with fluorescence-marked Glycophorin A (GpA) peptides. The transmembrane GpA forms dimers, whereby the energy transfer can be measured. 5-carboxyfluorescein and tetramethyl-6-carboxyrhodamine were used as chromophores.
Degree of dimerization of the model protein was measured in a direct comparison between native phospholipids and the corresponding phospholipids with a nitrated alkyl chain for the given concentrations of phospholipids (10-50%, mol/mol) admixed to the DSPC vesicles.
For determination of the dimerization, the peptides of FL GpAwt and TAMRA GpAwt were weighed and dissolved in TFE. The measurements were carried out on a fluorescence spectrometer of type Aminco Bowman series 2 (Thermo Spectronic).
The test system of another series is cortical neurons. The series can be described thus: Hypoxia and reperfusion of cortical neurons (viability, LDH).
The subject of series [6] is ovarian tissue strips. The series is described as follows: Cryopreservation of ovarian tissue strips: intact follicles. The settings on record: liquid nitrogen 14 days, cultured 14 days.
Description: as §1, §2
Series [7] concerns Cardiac muscle cells derived from neonatal rat heart. The series can be described thus: Hypoxia of cardiac muscle cells (viability, mitochondrial NAD+). The settings on record: for mitochondrial NAD+ content: hypoxia, baseline 5. Format: cell-based. How it is done: Cardiac muscle cells derived from neonatal rat heart (Nitobe J, et al, Reactive oxygene species regulate FLICE inhibitory protein and susceptibility to FAS-mediated apoptosis in cardiac myocytes. Cardiovasc RES 2003, 119-28). The heart muscle cells were cultured in Dulbecco/Eagle medium (DMEM) with 10% FCS added under standard conditions for two days. Incubation with the natural and nitrated phospholipids, as well as the hypoxia experiments were carried out as described above. Incubated cells were grown in culture medium under standard conditions for 24 hours. This is followed by a vitality staining as described above. […] The frozen cells were thawed up to -4° C. and homogenized for subsequent NAD^+ analyses. By means of differential centrifuge, pellets containing mitochondria were separated (Di Lisa, et al, 1993; Am. J. Physiol. 264, […]-[…]). The NAD^+ content was determined by fluoroscopy, and normalized to the protein content (Veloso, D., and […]., 1974;) Anal. Biochem., 449-450).

Series [8] deals with Murine macrophages (RAW 264.7).
Excerpt: The survival rate and cytokine production of adhering macrophages were examined to evaluate the bio-passivating properties of various nitro-carboxylic acid containing phospholipids.
Templates made of glass were coated with nitro-carboxylic acid-containing and native phosphatidylcholines and with an admixture of 50% phosphatidylcholine and phosphatidyletholamine, as described in example 2. […] The glass slides were placed in Teflon bowl, uncoated slides served as control. Murine macrophages (RAW 264.7) were cultured to a cell density of 5×10^5. Cell suspensions were added to the culture dishes, so that macrophages could attach on the slides under standard culture conditions for 24 to 48 hours. […] The cell survival rate was investigated using an MTT assay.

Chain of Glycophorin A (GpA) peptides (P02724 92-114 limits assumed, species assumed): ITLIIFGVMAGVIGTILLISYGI
Description for cortical neurons: To determine whether the membrane-stabilizing properties of nitrated phospholipids can lead to attenuation of effects due to an ischemic event or the re-perfusion damage, cortical neurons and cardiac myocytes were investigated.
Freshly prepared cortex tissue was separated with Papain and tissue suspensions were cultured in culture vessels (Prim ARA; BD Biosciences, USA) with Neurobasal A/B27 medium (Invitrogen) for 10-12 days. Cell suspensions were divided, and replenished with suspensions of the natural phospholipids SOPC and PLPC, as well as the analogue phospholipids with nitration of unsaturated fatty acids (1-stearoyl-2-(9-nitrooleoyl)-sn-PC and 1-palmitoyl-2-(9-nitrolinoleoyl)-sn-PC) at concentrations of 10 to 50 μmol/l in NaCl (0.9%) were added. […] After 4 hours, the cells were washed three times with buffered saline and buffered NaCl solution with the addition of MgCl2 and CaCl2 in an anaerobic atmosphere (85% N2, 5% O2, 10% CO2; at 35° C.) for 10 and 30 minutes. Then, the cells were washed once and grown in culture medium under aerobic conditions for 24 hours. […] Cells were stained with annexin V-FITC and propidium iodide (Molecular probes, USA). The vital and necrotic cells were measured by flow cytometry (FACSCalibur, Becton & Dickinson). The volume of culture medium was determined and an aliquot was taken for determination of the LDH (lactate dehydrogenase) concentration.

`CCCCCCCCC=C(CCCCCCCC(=O)OC[C@H](COP(=O)(O)OC1C(O)C(O)C(O)C(O)C1O)OC(=O)CCCCCCCC(=CCCCCCCCC)[N+](=O)[O-])[N+](=O)[O-]` (stereo partly drawn) [Example F, 1,2-di-(9-nitrooleoyl)-sn-3-glycerophosphatidylinositol]: in the series with Human red blood cells, the erythrocyte membrane stability entry is “very similar values as the nitrated phosphocholines”. In addition, the “inducible membrane channel activity of TRP channels” value (“inducible membrane channel activity” below) in the series with TRPV1, 2 and 4, TRPA1 was “significant decrease of inducible membrane channel activity”. Further, the “mechanical removal of coating substance and workload to pull the catheter through PTFE tubing” value (shortened to “mechanical removal”) in [1] is “Very similar results”. The “biocompatibility of coated implants compared to natural PLs” value in series [2] is reported as “improved biocompatibility of implants several-fold”. In addition, the “proportion of living cells relative to non-frozen control” value with sciatic nerve is 88%.

Regarding `CCCCCCCC/C=C(\CCCCCCCC(=O)O[C@H](COC(=O)CCCCCCCCCCCCCCCCC)COP(=O)([O-])OCC[N+](C)(C)C)[N+](=O)[O-]` [Example P14, 1-stearoyl-2-(E-9-nitrooleoyl)-sn-3-glycerophosphocholine], in the series on TRPV1, 2 and 4, TRPA1, the “inducible membrane channel activity” value is given as “significant decrease of inducible membrane channel activity”. The compound also came in with an estradiol in the series with ovarian tissue strips [3] of 8.6 ng/mL. The progesterone in the series with ovarian tissue strips [3] stood at 0.6 ng/mL. Further, the “end of diastole (ED) cytosolic calcium” value is recorded as 80 nmol/L in [4] (after hypoxia); 90 nmol/L in [4] (after hypoxia and stimulation with isoproterenol); 30 nmol/L in series [4] (normoxic conditions). Further, the “post systolic (PS) cytosolic calcium” value in [4] (after hypoxia) amounted to 40 nmol; in [4] (normoxic conditions), 10 nmol. Also, the “degree of dimerization of the model membrane protein” value in [5] is “significantly greater reduction of dimerization”. Also, the “increase in LDH versus normoxemia culture” value in the series with cortical neurons (10-minutes ischemia) is 120 fold; in the series with cortical neurons (30-minutes ischemia) it was 230 fold. The results for the “viability of cortical cells measured after 24 hours” value in the series with cortical neurons (10-minutes ischemia) and in the series with cortical neurons (30-minutes ischemia) were 68% and 54%, respectively. Further, the “rate of intact follicles relative to the control group” value in the series on ovarian tissue strips [6] was 96%. Also, the “biocompatibility of coated implants compared to natural PLs” value in series [2] is “improved biocompatibility of implants several-fold”. In the series on sciatic nerve, the “proportion of living cells relative to non-frozen control” value amounted to 86%. Also, the results for the “loss of viability of heart muscle cells after hypoxia” value in series [7] ((10 minutes)) and in series [7] ((30 minutes)) were 6% and 16%, respectively. Further, the results for the “mitochondrial NAD+ content” value in series [7] (first printed value) and in series [7] (second printed value) were 3.8 nmol/mg protein and 3.3 nmol/mg protein, respectively.

For the compound `CCCCCCCC/C=C(\CCCCCCCC(=O)O[C@H](COC(=O)CCCCCCCCCCCCCCC)COP(=O)(O)OCCN)[N+](=O)[O-]` [Example S, 1-Palmitoyl-2-(E-9-nitrooleoyl)-sn-3-glycero-phosphatidylethanolamine], in the series with Human red blood cells, the erythrocyte membrane stability entry is on record as “very similar values as the nitrated phosphocholines”. The “inducible membrane channel activity” value in the series with TRPV1, 2 and 4, TRPA1 is “significant decrease of inducible membrane channel activity”. Also, the “mechanical removal” value in [1] was “Very similar results”. In addition, the “proportion of living cells relative to non-frozen control” value with sciatic nerve was 85%.

For `CCCCCCCC/C=C(\CCCCCCCC(=O)OC[C@H](COP(=O)([O-])OCC[N+](C)(C)C)OC(=O)CCCCCCCCCCCCCCC)[N+](=O)[O-]` [Example Q, 1-(9-Nitrooleoyl)-2-(palmitoyl)-sn-3-glycero-phosphocholine], the “rate of intact follicles relative to the control group” value with ovarian tissue strips [6] is listed as 96%. Besides, the “mechanical removal” value in series [1] is reported as “Very similar results”. Moreover, the “proportion of living cells relative to non-frozen control” value in the series with sciatic nerve is reported as 80%. The “viability of adhering macrophages” value in series [8] is on record as 95-98%.
